In data set [1] the test system is Staphylococcus aureus. Kind of data set: Antimicrobial activity against Staphylococcus aureus. The class given is functional.
Data set [2] relates to Escherichia coli. Kind of data set: Antimicrobial activity against Escherichia coli. The data set is classed as functional.
Data set [3] relates to HepG2. Kind of data set: Cytotoxicity against human HepG2 cells by SRB assay. The class given is cell-based. On the technique in general: In SRB staining, fixed cells bind dye roughly in proportion to their protein.
The subject of data set [4] is A549. Kind of data set: Cytotoxicity against human A549 cells. The data set is classed as cell-based.
Data set [5] deals with Mycobacterium tuberculosis. The experiment in a line: microbe, parasite or virus in culture. To be noted: H37Rv, 48 h.
Description: Antimycobacterium activity against Mycobacterium tuberculosis H37Rv after 48 hrs by Resazurin microtiter assay
The test system of data set [6] is Mycobacterium tuberculosis. Kind of data set: Antimycobacterium activity against Mycobacterium tuberculosis H37Ra at dormant stage at 10 ug/ml. The class given is functional.
Data set [7] concerns the target T1, Dihydrofolate reductase (Mycobacterium tuberculosis, UniProt P9WNX1).
T1 sequence (P9WNX1 whole entry): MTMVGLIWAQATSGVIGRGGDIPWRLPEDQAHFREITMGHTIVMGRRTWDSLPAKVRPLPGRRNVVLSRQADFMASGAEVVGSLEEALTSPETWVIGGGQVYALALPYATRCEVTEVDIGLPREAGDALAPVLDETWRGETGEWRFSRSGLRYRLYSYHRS
Kind of data set: Inhibition of recombinant Mycobacterium tuberculosis DHFR using 45 uM DHF as substrate by spectrophotometry.

The target of data set [8] is T2, Dihydrofolate reductase (Homo sapiens, UniProt P00374).
T2 sequence (P00374 whole entry): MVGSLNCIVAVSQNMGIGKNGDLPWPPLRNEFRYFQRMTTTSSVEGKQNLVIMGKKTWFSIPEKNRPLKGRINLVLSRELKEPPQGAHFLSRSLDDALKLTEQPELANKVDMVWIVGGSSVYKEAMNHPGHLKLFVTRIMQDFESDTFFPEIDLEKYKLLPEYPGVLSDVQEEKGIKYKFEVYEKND
The experiment in a line: Inhibition of human DHFR using 45 uM DHF as substrate by spectrophotometry.

The results in this text go back to ChEMBL document CHEMBL3751663, “Design and Synthesis of a Focused Library of Diamino Triazines as Potential Mycobacterium tuberculosis DHFR Inhibitors” (ACS Med Chem Lett, 2015).

Molecules are shown by their SMILES. Values after ≈ are worked out from the molar mass of the structure shown.

Take `Cc1ccc(Oc2ccc(-c3nc(N)nc(N)n3)cc2)cc1`: the MIC was 426 µM (≈ 125 µg/mL) in data set [1], 426 µM (≈ 125 µg/mL) in data set [2] and above 418 µM in data set [5]. The Activity result in data set [3] and in data set [4] was “Non-toxic” each time.

In the case of `Nc1nc(N)nc(-c2ccc(Oc3ccccc3)cc2)n1`, in data set [6], at 10 µg/mL the inhibition was 19.4%. Also, the MIC in data set [1] was 448 µM (≈ 125 µg/mL); in data set [2], 448 µM (≈ 125 µg/mL); in data set [5], 110 µM (≈ 30.6 µg/mL). For the same compound, the Activity result in data set [3] and in data set [4] was “Non-toxic” each time.

As to `Nc1nc(N)nc(-c2ccc(Sc3ccccc3)cc2)n1`, the inhibition (usually the change of the read-out against control, counted positive when it falls) at 10 µg/mL in data set [6] worked out at 11.7%. Moreover, the values for the MIC in data set [1], in data set [2] and in data set [5] were 423 µM (≈ 125 µg/mL), 423 µM (≈ 125 µg/mL) and 212 µM (≈ 62.5 µg/mL), respectively. Besides, the Activity entry in data set [3] and in data set [4] was “Non-toxic” each time.

Regarding `Nc1nc(N)nc(-c2ccc(Oc3ccc(F)cc3)cc2)n1`, the inhibition at 10 µg/mL in data set [6] is 4.98%. In addition, the MIC is 420 µM (≈ 125 µg/mL) in data set [1], 420 µM (≈ 125 µg/mL) in data set [2] and above 420 µM in data set [5]. The Activity result in data set [3] and in data set [4] was “Non-toxic” in each case.

`Nc1nc(N)nc(-c2ccc(Oc3ccc(Cl)cc3)cc2)n1` came in with an inhibition at 10 µg/mL in data set [6] of 81.1%. Further, the MIC was 398 µM (≈ 125 µg/mL) in data set [1], 398 µM (≈ 125 µg/mL) in data set [2] and above 398 µM in data set [5]. Also, the Activity entry in data set [3] and in data set [4] was “Non-toxic” in each case.

Compound `Cc1cccc(C)c1Oc1ccc(-c2nc(N)nc(N)n2)cc1` returned an inhibition at 10 µg/mL in data set [6] of 96.9%. Also, the MIC in data set [1] was 407 µM (≈ 125 µg/mL); in data set [2] it was 407 µM (≈ 125 µg/mL); in data set [5], 20.3 µM (≈ 6.25 µg/mL). Further, the Activity result in data set [3] and in data set [4] was “Non-toxic” each time.

With `Cc1cccc(Oc2ccc(-c3nc(N)nc(N)n3)cc2)c1C`, in data set [6], the inhibition at 10 µg/mL was found to be 16.1%. The MIC in data set [1] came to 407 µM (≈ 125 µg/mL); in data set [2], 407 µM (≈ 125 µg/mL); in data set [5], 0.325 µM (≈ 0.0999 µg/mL). Besides, the Activity result in data set [3] and in data set [4] was “Non-toxic” each time. Also, the IC50 (as a rule, the concentration that inhibits the measured activity by half) came to 25.9 µM in data set [7] and 42 µM in data set [8].

Consider `COc1ccc(Oc2ccc(-c3nc(N)nc(N)n3)cc2)cc1`, for which the inhibition at 10 µg/mL in data set [6] is 37.5%. The figures for the MIC in data set [1], in data set [2] and in data set [5] were 404 µM (≈ 125 µg/mL), 404 µM (≈ 125 µg/mL) and above 396 µM, respectively. The Activity result in data set [3] and in data set [4] was “Non-toxic” throughout.

In data set [6], `Cc1cc(Oc2ccc(-c3nc(N)nc(N)n3)cc2)ccc1Cl` registered an inhibition at 10 µg/mL of 7.27%. For the same compound, the figures for the MIC in data set [1], in data set [2] and in data set [5] were 381 µM (≈ 125 µg/mL), 381 µM (≈ 125 µg/mL) and above 381 µM, respectively. Also, the Activity result in data set [3] and in data set [4] was “Non-toxic” in each case.

In the case of `Cc1cccc(Oc2ccc(-c3nc(N)nc(N)n3)cc2)c1`, the inhibition at 10 µg/mL in data set [6] was determined as 15%. Moreover, the MIC in data set [1] was 426 µM (≈ 125 µg/mL); in data set [2], 426 µM (≈ 125 µg/mL); in data set [5] it was above 447 µM. Besides, the Activity entry in data set [3] and in data set [4] was “Non-toxic” in each case.

`Cc1cc(Oc2ccc(-c3nc(N)nc(N)n3)cc2)cc(C)c1Cl` had an inhibition at 10 µg/mL in data set [6] of 14.5%. Moreover, the figures for the MIC in data set [1], in data set [2] and in data set [5] were 366 µM (≈ 125 µg/mL), 366 µM (≈ 125 µg/mL) and above 369 µM, respectively. Also, the Activity entry in data set [3] and in data set [4] was “Non-toxic” throughout.

Compound `Cc1cc(Cl)ccc1Oc1ccc(-c2nc(N)nc(N)n2)cc1` came in with an inhibition at 10 µg/mL in data set [6] of 87.2%. The MIC turned out to be 381 µM (≈ 125 µg/mL) in data set [1], 381 µM (≈ 125 µg/mL) in data set [2] and 1.96 µM (≈ 0.642 µg/mL) in data set [5]. The Activity result in data set [3] and in data set [4] was “Non-toxic” in each case.

`CC(C)(C)c1ccc(Oc2ccc(-c3nc(N)nc(N)n3)cc2)cc1` came in with an inhibition at 10 µg/mL in data set [6] of 42.2%. The MIC in data set [1] was 373 µM (≈ 125 µg/mL); in data set [2], 373 µM (≈ 125 µg/mL); in data set [5], above 380 µM. In addition, the Activity entry in data set [3] and in data set [4] was “Non-toxic” in each case.

In data set [6], `Nc1nc(N)nc(-c2ccc(Oc3ccc(Br)cc3)cc2)n1` returned an inhibition at 10 µg/mL of 83%. Moreover, the MIC in data set [1] was 349 µM (≈ 125 µg/mL); in data set [2] it was 349 µM (≈ 125 µg/mL); in data set [5] it was 3.56 µM (≈ 1.28 µg/mL). The Activity result in data set [3] and in data set [4] was “Non-toxic” in each case.

For `Nc1nc(N)nc(-c2ccc(Oc3ccc(Cl)cc3Cl)cc2)n1`, the inhibition at 10 µg/mL in data set [6] is 93.6%. Moreover, the MIC turned out to be 359 µM (≈ 125 µg/mL) in data set [1], 359 µM (≈ 125 µg/mL) in data set [2] and 3.59 µM (≈ 1.25 µg/mL) in data set [5]. Also, the Activity result in data set [3] and in data set [4] was “Non-toxic” throughout.

For the compound `Nc1nc(N)nc(-c2ccc(Oc3ccccc3Cl)cc2)n1`, 10 µg/mL produced 27.6% inhibition in data set [6]. The MIC was 398 µM (≈ 125 µg/mL) in data set [1], 398 µM (≈ 125 µg/mL) in data set [2] and 20.7 µM (≈ 6.5 µg/mL) in data set [5]. For the same compound, the Activity result in data set [3] and in data set [4] was “Non-toxic” each time.

Compound `NNC(=O)c1ccncc1` [ISONIAZID] came in with an MIC in data set [5] of 0.73 µM (≈ 0.1 µg/mL).

In data set [5], `CN(Cc1cnc2nc(N)nc(N)c2n1)c1ccc(C(=O)N[C@@H](CCC(=O)O)C(=O)O)cc1` [METHOTREXATE] had an MIC of 0.968 µM (≈ 0.44 µg/mL).

As for `COc1cc(Cc2cnc(N)nc2N)cc(OC)c1OC` [TRIMETHOPRIM], the MIC in data set [5] is 28.9 µM (≈ 8.4 µg/mL).
